Patent publication US20220395458A1, “PREVENTION OF VISIBLE PARTICLE FORMATION IN AQUEOUS PROTEIN SOLUTIONS” (Hoffmann-La Roche Inc., priority 2019, published 2022)
Values after ≈ are worked out from the molar mass of the structure shown.

Legend:
[1] = Visible particles in E/P box (Ph. Eur. 2.9.20) after spiking FFA to inorganic salt solutions; assay type: physicochemical; settings: FFA below solubility limit; for Visible particles E/P d0: d0 directly after spiking
Description: (§1) Aqueous stock solutions were prepared in 0.02% PS20 (Croda. Edison, N.J., USA) at defined concentrations of (1) 5 mg/mL and (2) 12.5 mg/mL (lauric acid. Sigma-Aldrich/Merck. Darmstadt. Del.) or (1) 1.5 mg/mL and (2) 5 mg/mL (myristic acid, Sigma-Aldrich/Merck. Darmstadt. Del.) as previously described by Doshi et al.^6 The procedure was adapted that the FFA/PS20 stock solution was sterile filtered using 0.22 μm PVDF Steriflip filters (Merck Millipore. Darmstadt. Del.) before 1:10 dilution and subsequently homogenized without a magnetic stirrer using a Heidolph Rotamax 120 orbital shaker (Schwabach. Del.) at 100 rpm at 25° C., for 1 hour. After 1:500 dilution, the solution was homogenized for 1 hour at 25° C., before homogenization at 2-8° C., overnight, 12-40 μL of stock solution were used for spiking experiments yielding final FFA concentrations of (1) 10 μg/mL and (2) 25 μg/mL (lauric acid) or (1) 3 μg/mL and (2) 10 μg/mL (myristic acid). Dilutions with stock solutions 1 yield FFA concentration below their solubility limit, whereas stock solutions 2 act as positive control confirmed by the formation of visible particles. FFA concentrations were verified for selected by LC-MS samples acc. Honemann et al.^7
Aqueous stock solutions of different salts were prepared at 1 mg/mL and used for spiking experiments to final concentrations between […]. NaCl, NaAlO2. NaBO2. B2O3, and CaCl2 (Sigma-Aldrich/Merck. Darmstadt. Del.) were selected as their dissolution products (ions) represent typical glass leachables from Type I borosilicate glass. The pH of the NaAlO2 and NaBO2 stock solutions was adjusted to pH 6 using HCl and subsequently filtered using 0.22 μm PVDF Sterivex filters (Merck Millipore. Darmstadt. Del.) and true elemental concentrations were determined by inductively-coupled plasma mass spectrometry (ICP-MS). Elemental concentrations were 0,048 μg/mL Aluminium and 295 μg/mL sodium and 78 μg/mL boron and 168 μg/mL, respectively. Spiking experiments with FFA were performed in duplicates.
(§2) Samples were analyzed by visual inspection on a Seidenader V 90-T instrument (Seidenader Maschinenbau GmbH. Markt Schwaben. Del.) as previously described by Ditter et al.^9 and using a black/white panel according Ph. Eur. 2.9.20.^10 and classified as Many particles (>7). Few particles (4-7), or Practically free of particles (0-4) in E/P box, and Many particles (>10). Few particles (6-10). Essentially free of particles (1-5), or Free of particles (0) by Seidenader.
(§3) pH of all solutions was verified. Samples were visually inspected immediately after spiking and regularly for up to 7 days. Further characterization by HIAC, turbidity, FTIR, and SEM-EDX was performed on day 1 only. All samples were analyzed when equilibrated to room temperature (4 h).
Different inorganic salt solutions, i.e. CaCl2. NaAlO2. NaBO2. B2O3, and NaCl, were prepared simulating artificial glass leachables. Myristic and lauric acid, as main degradation product from hydrolytic PS20 degradation, were added at concentrations below their solubility limit and samples were analyzed for visible particles. SVP, and turbidity. Samples were compared against relevant controls and the pH verified at pH 6.

[2] = in water at room temperature; cited from earlier work
[3] = Visible particles (Seidenader) after spiking FFA to glass leachable solutions; assay type: physicochemical; set-up: key to Visible particles: relative ranking to each other from less to most particle fromation (+, ++, +++); relative ranking to each other from less to most particle fromation (+, ++, +++); relative ranking to each other from less to most particle fromation (+, ++, +++); settings: FFA below solubility limit, up to 7 days, triplicates
Description: as §1
Representative mixtures of glass leachables were obtained from three different types of glass vials, e.g. Exp 33 and Exp51 (Schott A G, Müllheim, D E, and Schott North America Inc., N.Y. USA) in the 6 mL format, by three autoclavation cycles (121° C., 20 min) representing accelerate aging conditions. Vials were filled with 6 mL of either water for injection (WFI), 20 mM glycine solution pH 10 or a typical placebo solution used for protein formulations consisting of 20 mM Histidine/Histdine-HCl buffer pH 6.0, 10 mM Methionine, 240 mM sucrose (Ferro Pfanstiehl. Waukegan. Ill. USA), and 0.02% PS20. The pH of the glycine solutions was adapted after autoclavation with HCl to pH 6.0 and filtered through a 0.22 μm PVDF Sterivex filters (Merck Millipore. Darmstadt. Del.) Leachable concentrations were verified ICP-MS (Table 1) as described by Ditter et al.^8 Spiking experiments with FFA were performed in triplicates,
as §2, §3
Glass leachables were generated from different types of glass vials, e.g. Exp33 and Exp51 vials, with different matrix solutions including WFI, a glycine solution adjusted to pH 6, and a placebo solution representative for a mAb formulation. Defined amounts of myristic and lauric acid below their solubility limit were added to the solutions/mixtures of glass leachables and analyzed. Visible particles in Seidenader are summarized in Table 3 and were detected for all samples in contrast to various controls. Particle formation was dependent on the glass leachable solution and dependent on incubation time. […] An example for the dependency of particle formation on incubation time is provided in Table 3 for myristic acid in glass leachable solution from Exp51 vials/glycine solution. The example highlights the kinetics of particle formation with no particles directly after spiking and more than 10 particles at incubation day 5 and 7. For selected samples, particles were further characterized and identified by FTIR confirming the presence of free fatty acids. […]

[4] = CaCl2 250 μg/mL (Ca2+ 90 μg/mL)
[5] = CaCl2 500 μg/mL (Ca2+ 180 μg/mL)
[6] = CaCl2 1000 μg/mL (Ca2+ 360 μg/mL)
[7] = NaAlO2 nominal 250 μg/mL (0.012 μg/mL ion)
[8] = NaAlO2 nominal 500 μg/mL (0.024 μg/mL ion)
[9] = NaAlO2 nominal 1000 μg/mL (0.048 μg/mL ion)

## CCCCCCCCCCCC(=O)O [Lauric acid, lauric acid]
[1]; [4]
  Visible particles E/P d0: / (Practically free of particles (0-4, /) in E/P box)
  Visible particles E/P d2: / (Practically free of particles (0-4, /) in E/P box)
  Visible particles E/P d7: / (Practically free of particles (0-4, /) in E/P box)
[1]; [5]
  Visible particles E/P d0: / (Practically free of particles (0-4, /) in E/P box)
  Visible particles E/P d2: / (Practically free of particles (0-4, /) in E/P box)
  Visible particles E/P d7: / (Practically free of particles (0-4, /) in E/P box)
[1]; [6]
  Visible particles E/P d0: / (Practically free of particles (0-4, /) in E/P box)
  Visible particles E/P d2: xx (Few particles (4-7, xx))
  Visible particles E/P d7: / (Practically free of particles (0-4, /) in E/P box)
[1]; [7]
  Visible particles E/P d0: / (Practically free of particles (0-4, /) in E/P box)
  Visible particles E/P d1: / (Practically free of particles (0-4, /) in E/P box)
  Visible particles E/P d2: / (Practically free of particles (0-4, /) in E/P box)
  Visible particles E/P d7: / (Practically free of particles (0-4, /) in E/P box)
[1]; [8]
  Visible particles E/P d0: / (Practically free of particles (0-4, /) in E/P box)
  Visible particles E/P d1: / (Practically free of particles (0-4, /) in E/P box)
  Visible particles E/P d2: / (Practically free of particles (0-4, /) in E/P box)
  Visible particles E/P d7: / (Practically free of particles (0-4, /) in E/P box)
[1]; [9]
  Visible particles E/P d0: / (Practically free of particles (0-4, /) in E/P box)
  Visible particles E/P d1: / (Practically free of particles (0-4, /) in E/P box)
  Visible particles E/P d2: / (Practically free of particles (0-4, /) in E/P box)
  Visible particles E/P d7: / (Practically free of particles (0-4, /) in E/P box)
[2]
  solubility level: 15 µg/mL (≈ 74.9 µM)
[3]; glass leachable solution Exp33 vials, 3xTS Placebo
  Visible particles: +++
[3]; glass leachable solution Exp33 vials, 3xTS WFI
  Visible particles: +
[3]; glass leachable solution Exp51 vials, 3xTS Glycine pH 6
  Visible particles: ++
[3]; glass leachable solution Exp51 vials, 3xTS Placebo
  Visible particles: +++
[3]; glass leachable solution Exp51 vials, 3xTS WFI
  Visible particles: ++
